“Also recorded” adds a separate entry of the source. Where two headings read alike, the source gives them in different places.
What was measured:
SapM [1] = biological target: T1, SapM (Mycobacterium tuberculosis, UniProt O53361); experiment: biochemical; assay type: biochemical; conditions: for remaining activity at 100 µM: 0.5 h, read-out: %SA (percentage specific activity of SapM); for inhibition at 100 µM: read-out: inhibition of SapM activity (reduction in SA)
T1 construct: made in house; host or cells: Escherichia coli C41 (DE3)
T1 sequence (O53361 44-299): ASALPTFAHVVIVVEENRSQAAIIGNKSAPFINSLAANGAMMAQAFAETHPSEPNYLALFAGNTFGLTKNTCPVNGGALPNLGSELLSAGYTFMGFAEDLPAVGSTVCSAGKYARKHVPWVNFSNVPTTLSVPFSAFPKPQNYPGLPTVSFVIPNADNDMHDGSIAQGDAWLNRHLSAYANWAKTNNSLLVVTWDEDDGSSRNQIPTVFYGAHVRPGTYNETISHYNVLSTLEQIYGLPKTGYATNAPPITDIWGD

SapM [2] = biological target: T1, SapM; experiment: Type of inhibition of SapM, Lineweaver-Burk plots; assay type: biochemical
Excerpt: To determine the type of inhibition different inhibitor concentrations were selected to yield around 30% and 75% inhibition for each concentration of pNPP. This ensures sufficient signal to obtain accurate data while allowing a significant inhibition effect. Velocity (V) was plotted as a function of pNPP concentration and fit in a Lineweaver–Burk plot (double-reciprocal) using GraphPad Prism 8.41. All assays were done in 96-well microplates and performed in triplicate in at least two independent experiments.

M. bovis BCG wild-type = assay type: cell-based; conditions: Raw 264.7 macrophages; 40 µM; 72 h post-infection; vs DMSO
SapM [3] = biological target: T1, SapM; experiment: Microscale thermophoresis of SapM binding; conditions: for EC50: MST titration
Protocol: Microscale thermophoresis (MST) was used to study the direct binding interaction of SapM with three compounds 1, 2 and 13. SapM was labelled with NTA-647nm dye which attaches to the 6-histidine tag. 100 nM NTA-647 was incubated with 200 nM SapM for 1-hour at 4 °C and then centrifuged at 20,000 rcf for 20 minutes at 4 °C in 20 mM HEPES, 200 mM NaCl pH 7.0. 10 mM compound was diluted to 500 μM in the same buffer. Binding checks were carried out with labelled SapM (5 nM) with and without 250 nM compound with LED power of 20% and a medium MST power in a Monolith Pico instrument and using standard capillaries. Binding analysis was performed with a doubling serial dilution from 250 nM with 16 dilutions and a constant concentration of 5 nM labelled SapM.

VHR = VHR (Homo sapiens, UniProt P51452); experiment: hVHR inhibition, pNPP assay; assay type: biochemical
Sequence of VHR (P51452 whole entry): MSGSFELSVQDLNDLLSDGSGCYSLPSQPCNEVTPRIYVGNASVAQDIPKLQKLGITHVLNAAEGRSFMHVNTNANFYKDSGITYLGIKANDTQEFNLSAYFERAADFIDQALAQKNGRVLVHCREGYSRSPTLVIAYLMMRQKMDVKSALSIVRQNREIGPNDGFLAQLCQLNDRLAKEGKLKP

MptpA = MptpA (Mycobacterium tuberculosis, UniProt P9WIA1); experiment: biochemical; conditions: pH 6
Sequence of MptpA (P9WIA1 whole entry): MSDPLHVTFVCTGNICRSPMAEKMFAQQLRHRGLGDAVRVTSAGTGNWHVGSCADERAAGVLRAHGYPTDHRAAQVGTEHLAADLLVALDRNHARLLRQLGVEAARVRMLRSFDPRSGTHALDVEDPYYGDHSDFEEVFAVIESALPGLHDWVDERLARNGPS

PTP1B = biological target: T2, PTP1B (Homo sapiens, UniProt P18031); experiment: hPTP1B inhibition, pNPP assay; assay type: biochemical
T2 sequence (P18031 1-435): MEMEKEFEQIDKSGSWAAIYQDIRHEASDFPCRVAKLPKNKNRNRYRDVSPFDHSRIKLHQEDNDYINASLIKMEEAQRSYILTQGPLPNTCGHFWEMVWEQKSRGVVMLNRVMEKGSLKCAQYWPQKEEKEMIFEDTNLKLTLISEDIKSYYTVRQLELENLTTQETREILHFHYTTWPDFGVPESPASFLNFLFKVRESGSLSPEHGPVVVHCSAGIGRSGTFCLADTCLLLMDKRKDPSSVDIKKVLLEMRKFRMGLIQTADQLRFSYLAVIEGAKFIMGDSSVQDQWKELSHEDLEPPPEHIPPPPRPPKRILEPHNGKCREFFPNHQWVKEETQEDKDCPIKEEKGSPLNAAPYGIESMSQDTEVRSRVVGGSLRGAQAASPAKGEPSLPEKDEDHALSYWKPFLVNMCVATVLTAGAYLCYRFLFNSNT

Mtb H37Rv strain = experiment: Mycobacterium tuberculosis infection assay in THP-1 macrophages; assay type: cell-based; conditions: resting THP-1 macrophages; 1 µM and 40 µM; 24 h and 72 h post infection
MptpB = MptpB (Mycobacterium tuberculosis, UniProt I6WXK4); experiment: biochemical; conditions: pH 6
Sequence of MptpB (I6WXK4 whole entry, looked up): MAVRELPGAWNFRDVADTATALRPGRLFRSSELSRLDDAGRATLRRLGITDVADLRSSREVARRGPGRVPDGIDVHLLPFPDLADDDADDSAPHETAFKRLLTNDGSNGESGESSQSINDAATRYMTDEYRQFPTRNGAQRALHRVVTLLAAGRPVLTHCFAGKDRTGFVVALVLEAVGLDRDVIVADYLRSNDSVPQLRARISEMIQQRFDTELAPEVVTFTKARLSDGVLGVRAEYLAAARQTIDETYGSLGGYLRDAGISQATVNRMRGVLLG

M. bovis BCG ΔsapM = assay type: cell-based; conditions: 40 µM
SapM [4] = biological target: T1, SapM; parameters: method as in PMID 31312014; conditions: previously reported; cited from earlier work
AcpA = AcpA (Francisella tularensis subsp. novicida, UniProt A0Q436); experiment: biochemical
Sequence of AcpA (A0Q436 21-514 limits assumed): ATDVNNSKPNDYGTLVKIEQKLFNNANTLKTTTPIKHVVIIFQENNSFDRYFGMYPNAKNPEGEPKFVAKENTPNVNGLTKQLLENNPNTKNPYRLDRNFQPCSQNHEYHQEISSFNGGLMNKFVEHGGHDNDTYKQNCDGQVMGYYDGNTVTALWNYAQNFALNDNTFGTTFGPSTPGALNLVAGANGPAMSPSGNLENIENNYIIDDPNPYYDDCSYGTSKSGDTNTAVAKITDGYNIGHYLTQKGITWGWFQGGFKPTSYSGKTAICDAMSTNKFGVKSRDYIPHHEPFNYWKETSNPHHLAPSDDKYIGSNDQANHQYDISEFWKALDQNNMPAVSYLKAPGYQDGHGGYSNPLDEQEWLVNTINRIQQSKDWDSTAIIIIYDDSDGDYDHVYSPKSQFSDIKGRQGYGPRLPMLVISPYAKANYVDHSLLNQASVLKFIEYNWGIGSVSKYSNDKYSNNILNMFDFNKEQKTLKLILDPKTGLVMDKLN

[5] = Compound precipitation in enzyme assays; assay type: physicochemical; conditions: SapM dose-response assay
[6] = compounds at 100 µM, relative to pNPP DMSO control

In the case of `NC(Cc1cc(O)c(O)cc1O)C(=O)O` (racemic) [Compound 20, 6-Hydroxy-DL-DOPA], the “inhibition of SapM activity (reduction in SA)” value (shortened to “inhibition … (reduction in SA)”) (SapM [1]; compounds at 100 µM) is reported as ~ 30% and the “%SA (percentage specific activity of SapM)” value (SapM [1]; [6]) is reported as 71.7 ± 3.4%.

In the case of `O=c1oc2c(cc1O)oc(=O)c1cc(O)c(O)c(O)c12` [Compound 2, Galloflavin], the “mechanism of inhibition of SapM” value (SapM [2]) is reported as “uncompetitive inhibitors”, the “intracellular burden of wild-type M. bovis BCG” value (M. bovis BCG wild-type) is reported as “reduced the intracellular burden” and the “binding to SapM by MST” value (SapM [3]) is reported as “confirmed”. The EC50 (SapM [3]; read-out: Single species dose response EC50) was 32 ± 16 µM, the IC50 (VHR) was over 100 µM and the remaining activity at 100 µM (SapM [1]; [6]) was 0%. For the same compound, the “effect on SapM enzyme activity” value (SapM [1]; compounds at 100 µM) was “completely abolished the enzymatic activity; also recorded: inhibits SapM activity completely”, the IC50 (SapM [1]; pNPP assay, dose-response) was 9.3 ± 1.1 µM and the IC50 (MptpA; pNPP assay) was 55.2 ± 1.1 µM. For the same compound, the IC50 (PTP1B) was over 100 µM, the “Mtb intracellular burden vs DMSO control” value (Mtb H37Rv strain) was “significant (****p < 0.0001) reduction” and the IC50 (MptpB; pNPP assay) was over 100 µM. The “intracellular burden of ΔsapM” value (M. bovis BCG ΔsapM) was “did not further reduce the intracellular burden”.

In the case of `O=C1O[C@H]([C@@H](O)CO)C(O)=C1OP(=O)(O)O` [Compound 2P-AC, 2-phospho-L-ascorbic acid], the IC50 (SapM [4]) is given as over 200 µM and the IC50 (AcpA) is given as 116 ± 1.02 µM.

For `CCCCCCCCCCCC(=O)c1c(O)c(C(=O)CCCCCCCCCCC)c(O)c(C2CC(c3ccc(O)cc3)Oc3cc(O)ccc32)c1O` (stereo not drawn) [Compound 3, YM-26734], the “%SA (percentage specific activity of SapM)” value (SapM [1]) was 0%, the IC50 (SapM [1]) was 19.8 ± 1.1 µM and the “effect on SapM enzyme activity” value (SapM [1]) was “completely abolished the enzymatic activity”. The IC50 (MptpA) was over 100 µM and the IC50 (MptpB) was over 100 µM.

For `N#Cc1c2nc3ccccc3nc2n2ccc(NC(=O)c3cccs3)cc12` [Compound 4, HI-TOPK-32], the “%SA (percentage specific activity of SapM)” value (SapM [1]) was 20.5 ± 3.7% and the “concentration at which compound precipitates” value [5] was over 100 µM.

In the case of `C[C@H](O)[C@H](O)[C@H]1CNc2[nH]c(N)nc(=O)c2N1.Cl.Cl` [Compound 5, (6R)-BH4, reference compound], the “%SA (percentage specific activity of SapM)” value (SapM [1]; [6]) is reported as 33.3 ± 0.3% and the IC50 (SapM [1]; pNPP assay, dose-response) is reported as 73.9 ± 1.2 µM.

With `O=[N+]([O-])c1ccc(Oc2ccc(Br)cc2)c(C(O)P(=O)(O)O)c1` (stereo not drawn) [Compound 6, RWJ-60475] the “%SA (percentage specific activity of SapM)” value (SapM [1]) was 46.6 ± 0.9%, the IC50 (SapM [1]) was 41.9 ± 1.1 µM and the IC50 (MptpA) was over 100 µM. The IC50 (MptpB) was over 100 µM.

Work on `N#CC(C#N)=Cc1ccc(O)c(O)c1` [Compound 7, Tyrphostin 23] yielded a remaining activity at 100 µM (SapM [1]; [6]) of 73.5 ± 3.1% and an inhibition at 100 µM (SapM [1]; compounds at 100 µM) of 30 to 50%.

For `CC(C)(C)c1cc(/C=C(\C#N)C(N)=S)cc(C(C)(C)C)c1O` [Compound 8, Tyrphostin AG 879], the remaining activity at 100 µM (SapM [1]; [6]) was 78.7 ± 6.6% and the inhibition at 100 µM (SapM [1]; compounds at 100 µM) was under 21%.

For `N#CC(C#N)=C(N)/C(C#N)=C/c1ccc(O)cc1` [Compound 9, Tyrphostin AG 112], the “inhibition … (reduction in SA)” value (SapM [1]; compounds at 100 µM) was “less than 21%” and the “%SA (percentage specific activity of SapM)” value (SapM [1]; [6]) was 88.7 ± 1.7%.

With `N#C/C(=C\c1ccc(O)c(O)c1)C(=O)c1ccc(O)c(O)c1` [Compound 11, Tyrphostin AG 538] the “%SA (percentage specific activity of SapM)” value (SapM [1]; [6]) was 100.2 ± 0.3%.

With `N#CC(C#N)=Cc1ccc(O)cc1` [Compound 12, Tyrphostin 8] the “%SA (percentage specific activity of SapM)” value (SapM [1]) was 104.2 ± 4.2% and the “inhibition … (reduction in SA)” value (SapM [1]; 100 µM) was “less than 21%”.

In the case of `N#CC(C#N)=C(N)/C(C#N)=C/c1cc(O)c(O)c(O)c1` [Compound 13, Tyrphostin AG 183], the “mechanism of inhibition of SapM” value (SapM [2]) is reported as “uncompetitive inhibitors”, the “binding to SapM by MST” value (SapM [3]) is reported as “confirmed” and the EC50 (SapM [3]; Bivalent fit EC50 (1), tighter binding mode) is reported as 0.59 µM. For the same compound, the IC50 (VHR; pNPP assay, pH 5.5, read-out: IC50 VHR) was over 100 µM, the “effect on SapM enzyme activity” value (SapM [1]; compounds at 100 µM) was “completely abolished enzyme activity; also recorded: abolished enzyme activity completely” and the “%SA (percentage specific activity of SapM)” value (SapM [1]; [6]) was 0%. For the same compound, the IC50 (SapM [1]; pNPP assay, dose-response) was 8.2 ± 1 µM, the IC50 (MptpA; pNPP assay) was 16.7 ± 1 µM and the IC50 (PTP1B; pNPP assay, pH 5.5, read-out: IC50 PTP1B) was over 100 µM. It also gave an IC50 (MptpB; pNPP assay) of over 100 µM.

With `N#CC(C#N)=Cc1cc(O)c(O)c(O)c1` [Compound 14, Tyrphostin AG 82] the “mechanism of inhibition of SapM” value (SapM [2]) was “uncompetitive inhibitors”, the remaining activity at 100 µM (SapM [1]; [6]) was 0% and the “effect on SapM enzyme activity” value (SapM [1]; compounds at 100 µM) was “completely abolished enzyme activity; also recorded: abolished enzyme activity completely”. For the same compound, the IC50 (SapM [1]; pNPP assay, dose-response) was 14.5 ± 1 µM, the IC50 (MptpA; pNPP assay) was 23.7 ± 1.1 µM and the IC50 (MptpB; pNPP assay) was over 100 µM.

For `N#C/C(=C\c1ccc(O)c(O)c1)C(N)=O` [Compound 16, Tyrphostin AG 99], the “%SA (percentage specific activity of SapM)” value (SapM [1]; [6]) was 58.3 ± 0.6%.

With `N#CC(=Cc1ccc2[nH]ccc2c1)C(N)=C(C#N)C#N` [Compound 18, Tyrphostin AG 370] the “%SA (percentage specific activity of SapM)” value (SapM [1]; [6]) was 94.6 ± 3.1%.

Source: article PMC8027839 (Scientific Reports, 2021)
